Experimental data from PubChem BioAssay AID2060506 (Molecular Pharmacology Branch, DTP, NCI, 2025).
“And” between values parts separate entries of the source, which are not always exact repeats. Equal entries are not always repeated.

System: 598228-144-R-J1-PDC complex spheroid viability
Assay: Anticancer human tumor 598228-144-R-J1-PDC patient-derived serous endometrial adenocarcinoma cell line growth inhibition [GQUAD]
Settings: for viability, T/C: stronger effect = lower value; active = viability on the fitted dose curve at most 10% of control; inactive = the rest
From the text: DNA G-quadruplex Stabilizer Agents in Combinations in Complex Spheroids
A high-throughput screen of multi-cell type tumor spheroids was designed to identify active combinations of DNA G-quadruplex stabilizer agents and targeted small molecules. Complex spheroids include a stromal component modeled by human endothelial cells (HUVEC) and fibroblasts modeled by human mesenchymal stem cells (MSCs). The concentration ranges selected for each drug and investigational agent were based upon clinically achievable concentrations if the clinical Cmax of the agent was known.
Compounds. The drugs and investigational agents: pidnarulex (CX-5461; NSC782164), APTO-253 (NSC789042), BRACO-19 (NSC847499), peposertib (NSC802822), ceralasertib (NSC780249), elimusertib (NSC800525), camonsertib (NSC841442), AZD-1390 (NSC803789), olaparib (NSC753686), talazoparib (NSC767125), ART-558 (NSC835418), sotorasib (NSC818433), MRTX-1133 (NSC836407), SN-38 (NSC673596), topotecan (NSC609699), etoposide (NSC141540), doxorubicin (NSC123127), gemcitabine (NSC613327), 5-fluorouracil (NSC19893), paclitaxel (NSC125973), vemurafenib (NSC761431), panobinostat (NSC761190), R-306465 (JNJ-16241199; NSC773264), adavosertib (NSC754352), TP-3654 (NSC805149), carboplatin (NSC241240), KSQ-4279 (NSC840948), and staurosporine (NSC755774) were obtained from the National Cancer Institute (NCI) Developmental Therapeutics Program Chemical Repository (34). The FDA-approved anticancer drug set is available from the NCI Developmental Therapeutics Program. […] The stock solutions were prepared in dimethyl sulfoxide (DMSO, Sigma-Aldrich, St. Louis, MO, cat. D2650) at 800-fold the tested concentration and stored at -70 degrees C prior to their use. All drugs and investigational agents were tested over a range starting from a high concentration at or near the clinical Cmax and decreasing in half-log increments. If the clinical Cmax for an agent had not been determined, the highest concentration tested was 10 microM.
2.3 Cell Culture. All cells were maintained in an incubator at 37 degrees C and 5% CO2 with 95% humidity. The PDC lines were cultured according to standard operating procedures established by the NCI PDMR. All PDCs were thawed and cultured in Matrigel-coated flasks prepared with a working solution of 1X Ham's F-12 nutrient mix, without supplementation (Invitrogen, cat. 11765054), 100 U/mL penicillin-streptomycin (Invitrogen, cat. 15140122), and 2.5% Matrigel (Corning Inc., cat. 354248) for the first three passages. The 857933-349-R-J2-PDC line was cultured in 6C/Colon 1B media, which includes advanced DMEM/F-12 (Thermo Fisher Scientific, cat. 12634028), 10 mM HEPES (Thermo Fisher Scientific, cat. 15630080), 1X GlutaMAX supplement (Thermo Fisher Scientific, cat. 35050061), 0.1 mg/mL primocin (InvivoGen, cat. ant-pm-2), 10% defined fetal bovine serum, heat inactivated (HyClone Laboratories Inc., cat. SH30070.03HI), 50% L-WRN conditioned media (ATCC, cat. CRL-3276), 1.25 mM N-Acetyl-L-cysteine (Sigma-Aldrich, cat. A9165), 10 mM nicotinamide (Sigma-Aldrich, cat. N0636), 1X B-27 supplement (Thermo Fisher Scientific, cat. 17504044), 1X N-2 supplement (Thermo Fisher Scientific, cat. 17502048), 10 microM Y-27632 dihydrochloride (Tocris Bioscience, cat. 1254), and 50 ng/mL human EGF recombinant protein (Thermo Fisher Scientific, cat. PHG0311). The 485176-168-R4-J1-PDC line was cultured in Panc media, which includes all 6C/Colon 1B media components plus 100 ng/mL human FGF-10 (Thermo Fisher Scientific, cat. 100-26), 500 nM SB-431542 (Selleckchem, cat. S1067), and gastrin (Tocris, cat. 3006).
[…]

[1] = curve of first compound, second compound 0.0316 µM
[2] = curve of first compound, second compound 0.1 µM
[3] = curve of first compound, second compound 0.316 µM
[4] = curve of first compound, second compound 1 µM
[5] = curve of first compound, second compound 3.16 µM
[6] = curve of first compound, second compound 10 µM
[7] = second compound 0.0316 µM, first compound 0.0316 µM
[8] = second compound 0.0316 µM, first compound 0.1 µM
[9] = second compound 0.0316 µM, first compound 0.316 µM
[10] = second compound 0.0316 µM, first compound 1 µM
[11] = second compound 0.0316 µM, first compound 3.16 µM
[12] = second compound 0.0316 µM, first compound 10 µM
[13] = second compound 0.1 µM, first compound 0.0316 µM
[14] = second compound 0.1 µM, first compound 0.1 µM
[15] = second compound 0.1 µM, first compound 0.316 µM
[16] = second compound 0.1 µM, first compound 1 µM
[17] = second compound 0.1 µM, first compound 3.16 µM
[18] = second compound 0.1 µM, first compound 10 µM
[19] = second compound 0.316 µM, first compound 0.0316 µM
[20] = second compound 0.316 µM, first compound 0.1 µM
[21] = second compound 0.316 µM, first compound 0.316 µM
[22] = second compound 0.316 µM, first compound 1 µM
[23] = second compound 0.316 µM, first compound 3.16 µM
[24] = second compound 0.316 µM, first compound 10 µM
[25] = second compound 1 µM, first compound 0.0316 µM
[26] = second compound 1 µM, first compound 0.1 µM
[27] = second compound 1 µM, first compound 0.316 µM
[28] = second compound 1 µM, first compound 1 µM
[29] = second compound 1 µM, first compound 3.16 µM
[30] = second compound 1 µM, first compound 10 µM
[31] = second compound 3.16 µM, first compound 0.0316 µM
[32] = second compound 3.16 µM, first compound 0.1 µM
[33] = second compound 3.16 µM, first compound 0.316 µM
[34] = second compound 3.16 µM, first compound 1 µM
[35] = second compound 3.16 µM, first compound 3.16 µM
[36] = second compound 3.16 µM, first compound 10 µM
[37] = second compound 10 µM, first compound 0.0316 µM
[38] = second compound 10 µM, first compound 0.1 µM
[39] = second compound 10 µM, first compound 0.316 µM
[40] = second compound 10 µM, first compound 1 µM
[41] = second compound 10 µM, first compound 3.16 µM
[42] = second compound 10 µM, first compound 10 µM
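Note: spheroids exposed to the agents for one week before reading.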
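Throughout, for viability, T/C: percent of vehicle DMSO control viability so 100% = untreated growth.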

Cc1cccc(N(C)C(=O)C2C(O)CCN2c2nc(C)cc(C(F)(F)F)c2C#N)c1 (stereo unspecified)
> 10 µM: IC50 (curve of compound)
inactive: viability, T/C (compound 0.0316 µM) 108% and 89.4% and 98.2% | viability, T/C (compound 0.1 µM) 92.7% and 78% and 99.4% | viability, T/C (compound 0.316 µM) 97.2% and 122% and 88.8% | viability, T/C (compound 1 µM) 99.8% and 91.5% and 99.9% | viability, T/C (compound 3.16 µM) 97.1% and 94.7% and 111% | viability, T/C (compound 10 µM) 93.6% and 88.1% and 102%

CC1COCCN1c1cc(-c2ccnn2C)c2ccnc(-c3ccn[nH]3)c2n1 (stereo unspecified)
inactive: viability, T/C (compound 0.0316 µM) 76% and 72.5% and 81.6% | viability, T/C (compound 0.1 µM) 52.9% and 44.2% and 42.1% | viability, T/C (compound 0.316 µM) 37.5% and 47.8% and 36.9% | viability, T/C (compound 1 µM) 43.9% and 35.5% and 42.2% | viability, T/C (compound 3.16 µM) 50% and 39.5% and 40.7% | viability, T/C (compound 10 µM) 39.6% and 33.4% and 38.9%
0.14 µM and 0.0916 µM and 0.079 µM: IC50 (curve of compound)

C#Cc1c(F)ccc2cc(O)cc(-c3ncc4c(N5CC6CCC(C5)N6)nc(OCC56CCCN5CC(F)C6)nc4c3F)c12 (stereo unspecified)
> 10 µM: IC50 (curve of compound)
inactive: viability, T/C (compound 0.0316 µM) 103% and 107% and 96.2% | viability, T/C (compound 0.1 µM) 98.9% and 118% and 97.6% | viability, T/C (compound 0.316 µM) 106% (2×) and 98.1% | viability, T/C (compound 1 µM) 100% and 101% and 92.4% | viability, T/C (compound 3.16 µM) 96.8% and 99.4% and 96.6% | viability, T/C (compound 10 µM) 84.1% and 105% and 83.3%

O=C(NO)c1cnc(N2CCN(S(=O)(=O)c3ccc4ccccc4c3)CC2)nc1
active: viability, T/C (compound 1 µM) 0.49% and 0.43% and 0.75% | viability, T/C (compound 3.16 µM) 0.37% and 0.43% and 0.25% | viability, T/C (compound 10 µM) 0.35% and 0.28% and 0.23%
inactive: viability, T/C (compound 0.0316 µM) 112% and 98.7% and 110% | viability, T/C (compound 0.1 µM) 49.4% and 40.7% and 59.1% | viability, T/C (compound 0.316 µM) 26.3% and 24.7% and 34%
0.106 µM and 0.088 µM and 0.148 µM: IC50 (curve of compound)

CC(C)n1c(=O)n(C)c2cnc3cc(F)c(-c4ccc(OCCCN5CCCCC5)nc4)cc3c21 + Cc1[nH]c2ccc(F)cc2c1-c1nc2c3cccnc3c3ncccc3c2[nH]1
> 10 µM: IC50 [1] | IC50 [2] | IC50 [3] | IC50 [6]
< 0.0316 µM: IC50 [5]
inactive: viability, T/C [7] 116% | viability, T/C [8] 100% | viability, T/C [9] 117% | viability, T/C [10] 121% | viability, T/C [11] 106% | viability, T/C [12] 65% | viability, T/C [13] 107% | viability, T/C [14] 108% | viability, T/C [15] 95.4% | viability, T/C [16] 94.4% | viability, T/C [17] 91.7% | viability, T/C [18] 77% | viability, T/C [19] 90.8% | viability, T/C [20] 97.2% | viability, T/C [21] 93.9% | viability, T/C [22] 87.4% | viability, T/C [23] 101% | viability, T/C [24] 62.2% | viability, T/C [25] 72.6% | viability, T/C [26] 60.6% | viability, T/C [27] 59.2% | viability, T/C [28] 60.6% | viability, T/C [29] 59.2% | viability, T/C [30] 39.5% | viability, T/C [31] 45.2% | viability, T/C [32] 47.4% | viability, T/C [33] 40.8% | viability, T/C [34] 39.3% | viability, T/C [35] 29.5% | viability, T/C [36] 27.3% | viability, T/C [37] 66% | viability, T/C [38] 57.9% | viability, T/C [39] 52.9% | viability, T/C [40] 54.1% | viability, T/C [41] 55.4% | viability, T/C [42] 46.5%
5.12 µM: IC50 [4]

CC(C)n1c(=O)n(C)c2cnc3cc(F)c(-c4ccc(OCCCN5CCCCC5)nc4)cc3c21
> 10 µM: IC50 (curve of compound)
inactive: viability, T/C (compound 0.0316 µM) 109% and 90.8% and 106% | viability, T/C (compound 0.1 µM) 91.9% and 85.2% and 84.2% | viability, T/C (compound 0.316 µM) 101% and 92.4% and 109% | viability, T/C (compound 1 µM) 115% and 111% and 96.7% | viability, T/C (compound 3.16 µM) 94.2% and 74.5% and 67.8% | viability, T/C (compound 10 µM) 60.8% and 56.7% and 68.5%

CCCS(=O)(=O)Nc1ccc(F)c(C(=O)c2c[nH]c3ncc(-c4ccc(Cl)cc4)cc23)c1F + Cc1cnc(CNC(=O)c2c(=O)c3ccc(N4CCCN(C)CC4)nc3n3c2sc2ccccc23)cn1
4.94 µM: IC50 [3]
active: viability, T/C [36] 0.38%
inactive: viability, T/C [7] 92.8% | viability, T/C [8] 96% | viability, T/C [9] 113% | viability, T/C [10] 92.5% | viability, T/C [11] 109% | viability, T/C [12] 26.9% | viability, T/C [13] 77.7% | viability, T/C [14] 81.5% | viability, T/C [15] 60.7% | viability, T/C [16] 65.6% | viability, T/C [17] 92.2% | viability, T/C [18] 34.4% | viability, T/C [19] 59.4% | viability, T/C [20] 82% | viability, T/C [21] 74% | viability, T/C [22] 62.3% | viability, T/C [23] 65.7% | viability, T/C [24] 27.3% | viability, T/C [25] 64.5% | viability, T/C [26] 70.7% | viability, T/C [27] 62.3% | viability, T/C [28] 65.6% | viability, T/C [29] 73.8% | viability, T/C [30] 27.7% | viability, T/C [31] 59.9% | viability, T/C [32] 47.5% | viability, T/C [33] 48.4% | viability, T/C [34] 61.5% | viability, T/C [35] 65.6% | viability, T/C [37] 33.5% | viability, T/C [38] 32.5% | viability, T/C [39] 18.7% | viability, T/C [40] 24.7% | viability, T/C [41] 40.9% | viability, T/C [42] 0.26%
5.23 µM: IC50 [4]
6.45 µM: IC50 [2]
< 0.0316 µM: IC50 [6]
6.97 µM: IC50 [1]
3.62 µM: IC50 [5]

Cn1ncnc1[C@H]1c2n[nH]c(=O)c3cc(F)cc(c23)N[C@@H]1c1ccc(F)cc1
inactive: viability, T/C (compound 0.000999 µM) 102% and 87.8% and 113% | viability, T/C (compound 0.00316 µM) 108% and 103% and 91.4% | viability, T/C (compound 0.00999 µM) 73.5% and 93.9% and 92.7% | viability, T/C (compound 0.0316 µM) 101% and 75.7% and 85.6% | viability, T/C (compound 0.0999 µM) 90.7% and 71.7% and 88% | viability, T/C (compound 0.316 µM) 73.6% and 88.2% and 69.7%
> 0.316 µM: IC50 (curve of compound)
